The values below come from PubChem BioAssay (NCI).

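Five concentrations, 48 hours, 96-well plates. Abbreviation: GI50, concentration required for 50% inhibition of growth. The concentration for full growth arrest is given as TGI.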

Test systems include NCI-H23 lung; NCI-H226 lung; UACC-62 melanoma; CAKI-1 renal; SK-MEL-28 melanoma; RPMI-8226 leukemia; HCT-116 colon; SK-MEL-2 melanoma; HOP-92 NSCLC; SK-OV-3 ovarian.
Experiment in all cases: inhibition of tumour cell growth, NCI panel, 48 h

`COc1ccc(C(=O)Nc2ccc(O)c(=O)cc2)cc1`: the TGI in the experiment on NCI-H23 lung is more than 100 µM; with NCI-H226 lung it was more than 100 µM; with UACC-62 melanoma, more than 100 µM; in the experiment on CAKI-1 renal, more than 100 µM; with SK-MEL-28 melanoma, 56.4 µM; with RPMI-8226 leukemia, more than 100 µM. For the same compound, the TGI in the experiment with HCT-116 colon and in the experiment with SK-MEL-2 melanoma was more than 100 µM in each case.

Take `Cc1cc(N[C@@H]2CCC[C@H](Nc3ccnc4cc(Cl)ccc34)C2)nc(N2CCCCCC2)n1`: the GI50 in the experiment with HOP-92 NSCLC was 1.62 µM; with NCI-H23 lung, 2.03 µM; in the experiment on NCI-H226 lung, 2.42 µM; in the experiment with UACC-62 melanoma, 1.81 µM; with SK-MEL-28 melanoma, 1.85 µM; in the experiment with RPMI-8226 leukemia, 1.64 µM. Also, the figures for the GI50 in the experiment with SK-OV-3 ovarian, in the experiment with HCT-116 colon and in the experiment with SK-MEL-2 melanoma were 1.86 µM, 1.05 µM and 2.07 µM, respectively. Moreover, the TGI in the experiment with HOP-92 NSCLC came to 3.36 µM; in the experiment with NCI-H23 lung, 5.43 µM; in the experiment on NCI-H226 lung, 6.06 µM; in the experiment with UACC-62 melanoma, 3.34 µM; in the experiment with SK-MEL-28 melanoma, 3.62 µM; in the experiment with RPMI-8226 leukemia, 4.71 µM. For the same compound, the TGI worked out at 3.73 µM in the experiment on SK-OV-3 ovarian, 2.36 µM in the experiment with HCT-116 colon and 4.52 µM in the experiment on SK-MEL-2 melanoma.

For the compound `Cc1nc(Nc2cccnc2)sc1C(=O)/C=C/c1ccc(F)cc1`, the GI50 in the experiment with HOP-92 NSCLC was 3.1 µM; in the experiment with NCI-H23 lung, 3.93 µM; with UACC-62 melanoma, 1.99 µM; with CAKI-1 renal, 3.39 µM; in the experiment with SK-MEL-28 melanoma, 3.72 µM; in the experiment on RPMI-8226 leukemia, 2.69 µM. Moreover, the GI50 in the experiment with SK-OV-3 ovarian was 3.85 µM; with HCT-116 colon it was 1.64 µM; in the experiment on SK-MEL-2 melanoma, 2.86 µM. Moreover, the TGI with HOP-92 NSCLC was found to be 9.98 µM; with NCI-H23 lung, 20.7 µM; in the experiment on UACC-62 melanoma, 4.99 µM; in the experiment on CAKI-1 renal it was 13.6 µM; with SK-MEL-28 melanoma it was 21.4 µM; in the experiment with RPMI-8226 leukemia, 15.2 µM. Moreover, the TGI was more than 100 µM in the experiment on SK-OV-3 ovarian, 4.18 µM in the experiment with HCT-116 colon and 9.03 µM with SK-MEL-2 melanoma.

For the compound `Cc1cc2c(=O)c3ccccc3[nH]c2c(C(N)=O)c1C`, the TGI in the experiment on NCI-H23 lung, with NCI-H226 lung, with UACC-62 melanoma, in the experiment with CAKI-1 renal, in the experiment on SK-MEL-28 melanoma and in the experiment on RPMI-8226 leukemia was more than 100 µM in each case. Further, the TGI with SK-OV-3 ovarian, in the experiment on HCT-116 colon and in the experiment with SK-MEL-2 melanoma was more than 100 µM in each case.

Turning to `CCOC(=O)c1ccc(/C(C)=N/NC(N)=S)cc1`, the TGI with HOP-92 NSCLC, in the experiment with NCI-H23 lung, in the experiment on UACC-62 melanoma, in the experiment on SK-MEL-28 melanoma, in the experiment with RPMI-8226 leukemia and with SK-OV-3 ovarian was more than 100 µM in each case. This compound showed a TGI with HCT-116 colon of more than 100 µM.

As for `O=C(OC1CCC(=C2SCCCS2)[C@H]1C1SCCCS1)c1ccccc1` (stereo not given in full), the TGI in the experiment on HOP-92 NSCLC, in the experiment with NCI-H23 lung, with NCI-H226 lung, with UACC-62 melanoma, in the experiment with RPMI-8226 leukemia and in the experiment on SK-OV-3 ovarian was more than 100 µM throughout. In addition, the TGI with HCT-116 colon and with SK-MEL-2 melanoma was more than 100 µM in each case.

On to `O=C(CC1C(=O)Nc2ccccc2S1=O)Nc1cc(Cl)ccc1Cl` (stereo not given), for which the TGI in the experiment with HOP-92 NSCLC, with NCI-H23 lung, in the experiment on NCI-H226 lung, with UACC-62 melanoma, with CAKI-1 renal and in the experiment with SK-MEL-28 melanoma was more than 100 µM in each case. The TGI in the experiment on RPMI-8226 leukemia, in the experiment with HCT-116 colon and with SK-MEL-2 melanoma was more than 100 µM each time.

On to `C=CCCCCC1CCC2CCC(CCCCC=C)N12` (stereo not given), for which the TGI in the experiment on HOP-92 NSCLC stood at 22.8 µM; in the experiment with NCI-H226 lung, 34.1 µM; in the experiment with UACC-62 melanoma, 30.6 µM; in the experiment on CAKI-1 renal it was 84.8 µM; in the experiment on SK-MEL-28 melanoma it was 32.2 µM; with RPMI-8226 leukemia, 41 µM. Besides, the figures for the TGI with HCT-116 colon and with SK-MEL-2 melanoma were 30.2 µM and 22.9 µM, respectively.

On to `CN(C)CCC(/C=C/c1ccccc1)=N\Nc1ccccc1`, for which the TGI in the experiment with NCI-H23 lung was 13.9 µM; with UACC-62 melanoma, 3.26 µM; with SK-MEL-28 melanoma, 3.54 µM; in the experiment with RPMI-8226 leukemia it was 8.52 µM; in the experiment with SK-OV-3 ovarian it was 9.8 µM; in the experiment on HCT-116 colon, 10.8 µM.

`O=C(/C(=C/c1ccc(Cl)cc1)c1ccccc1)c1ccccc1`: the TGI with HOP-92 NSCLC turned out to be 41.7 µM; with NCI-H23 lung, 40.5 µM; with NCI-H226 lung it was 31.7 µM; with UACC-62 melanoma, 29.4 µM; in the experiment with SK-MEL-28 melanoma, 30.6 µM; in the experiment with RPMI-8226 leukemia, 45.4 µM. The results for the TGI with SK-OV-3 ovarian, in the experiment on HCT-116 colon and with SK-MEL-2 melanoma were 71.7 µM, 27.1 µM and 36.6 µM, respectively.

On to `N#C/C(=C\c1ccc2ccccc2c1)C(=O)c1ccccc1`, for which the TGI in the experiment with NCI-H23 lung is more than 74.4 µM; in the experiment with NCI-H226 lung it was more than 100 µM; in the experiment with UACC-62 melanoma, more than 78.5 µM; in the experiment with CAKI-1 renal, more than 100 µM; in the experiment on SK-MEL-28 melanoma it was more than 100 µM; in the experiment on RPMI-8226 leukemia it was 97.8 µM. The TGI in the experiment with SK-OV-3 ovarian was more than 100 µM; in the experiment on HCT-116 colon, more than 80.4 µM; in the experiment on SK-MEL-2 melanoma it was more than 100 µM.

For the compound `Cc1ccccc1C(=O)c1cc(O)ccc1O`, the TGI in the experiment on HOP-92 NSCLC, in the experiment on NCI-H23 lung, with NCI-H226 lung, with UACC-62 melanoma, in the experiment on CAKI-1 renal and in the experiment on RPMI-8226 leukemia was more than 100 µM each time. The TGI with SK-OV-3 ovarian, with HCT-116 colon and in the experiment on SK-MEL-2 melanoma was more than 100 µM each time.

Take `N#CC(C(=O)/C(=N\NC(N)=O)C(C#N)c1ccc(Cl)cc1)c1ccc(Cl)cc1` (stereo not given): the TGI in the experiment on HOP-92 NSCLC, with NCI-H23 lung, with NCI-H226 lung, in the experiment on UACC-62 melanoma, in the experiment with SK-MEL-28 melanoma and in the experiment with RPMI-8226 leukemia was more than 100 µM in each case. In addition, the TGI in the experiment with SK-OV-3 ovarian, in the experiment on HCT-116 colon and in the experiment with SK-MEL-2 melanoma was more than 100 µM in each case.

For `CCCCCCCCCCCCCCCC(=O)OCCOCCOCCOCc1ccccc1`, the TGI was 69.4 µM in the experiment with HOP-92 NSCLC; more than 100 µM in the experiment on NCI-H23 lung; more than 100 µM with NCI-H226 lung; more than 100 µM in the experiment with UACC-62 melanoma; more than 100 µM in the experiment with CAKI-1 renal; more than 100 µM in the experiment with SK-MEL-28 melanoma. Also, the TGI in the experiment with HCT-116 colon and with SK-MEL-2 melanoma was more than 100 µM in each case.
